# Assays:
# [1] = format: in vitro ADME, pork
# Experimental: A study comprising applying conjugated FITC-Dextran with 4000 Daltons molecular weight as a surrogate of water-soluble drugs on ex vivo pork skin samples was performed. Thermoelectric coolers and other cooling devices can be used as well. In these experiments […] was used as the cryogenic agent. Exposure time can range from minutes to millisecond exposures, depending on the type of coolant used. […] For applying suction, any method of creating suction or positive pressure on the skin can be used. For example, the Isolaze device from […] can be used to apply a suction of 380 mm Hg. To investigate this, a study was initiated consisting of applying conjugated FITC-Dextran with 4000 Daltons molecular weight as a surrogate of water-soluble drugs on ex vivo pork skin samples. After exposing skin samples for 30 min to 3 hours after topical application, a cross-sections of skin was cut ( 20 microns thick) to observe directly the Dextran penetration via the intensity of the FITC fluorescence with the aid of a confocal fluorescent microscope.
# [2] = Case clinical study: penetration after topical application with cryo-cracking versus simple rubbing; format: in vivo; conditions: 3 hrs after topical application using cryo-cracking procedure
# Source text: This study also included FITC with Dextran of 4 kDa and 70 kDA.
transdermal delivery of drug surrogate using the cryo-cracking process [1],"penetration into the stratum corneum and epidermis down the microcracks, compared to penetration after simple rubbing [2]",Compound
effectively delivered,much more significant,O=C1OC2(c3ccc(O)cc3Oc3cc(O)ccc32)c2ccc(N=C=S)cc21 [FITC]
delivered,,Dylight

# — patent US20110178456A1, “ASSISTING TRANSDERMAL DRUG DELIVERY BY MEANS OF TISSUE FREEZING, VACUUM PRESSURE AND PHOTOHEATING PROCEDURES” (THE REGENTS OF THE UNIVERSITY OF CALIFORNIA, priority 2009, published 2011)
